Laboratory results from patent US20220133688A1, “MACROCYCLIC LACTONE ANTHELMINTICS AGAINST NEMATODES” (Bayer Animal Health GmbH, priority 2019, published 2022).
Where “and” joins values, the source holds several entries; their conditions need not be identical. Identical values can stand only once. Like-named read-outs stand apart in the source and are kept apart here.

Experiments:
[1] = tested on: D. immitis Mf, Yazoo-2013 strain (resistant); assay: Cell attachment assay (canine PMN or PBMC attachment to Mf), Yazoo-2013 isolate; format: cell-based, Dirofilaria immitis
[2] = tested on: D. immitis Mf, Metairie-2014 strain (resistant); assay: Cell attachment assay (canine PMN or PBMC attachment to Mf), Metairie-2014 isolate; format: cell-based, Dirofilaria immitis; details: for lowest drug concentration at which a statistically significant increase (p = <0.05) in cell attachment was observed compared to the no-drug control: 2-way ANOVA

Compound	Percentage (±SEM) of Mf with cells attached [1]	drug concentration causing a significant increase in cell attachment [1] [nM]	lowest drug concentration at which a statistically significant increase (p = <0.05) in cell attachment was observed compared to the no-drug control [1] [nM]	Percentage (±SEM) of Mf with cells attached [2]	drug concentration required for a significant increase in cell attachment [2] [µM]	increase in attachment of PBMCs at any concentration [2]	Percentage (±SEM) of Mf with cells attached ([1]; PBMC, 1 μM drug, Yazoo-2013 Mf) [%]	lowest drug concentration at which a statistically significant increase (p = <0.05) in cell attachment was observed compared to the no-drug control ([1]; PBMC, 40 h, Yazoo-2013 Mf, 2-way ANOVA) [nM]	Percentage (±SEM) of Mf with cells attached ([1]; PMN, 1 μM drug, Yazoo-2013 Mf) [%]	lowest drug concentration at which a statistically significant increase (p = <0.05) in cell attachment was observed compared to the no-drug control ([1]; PMN, 24 h, Yazoo-2013 Mf, 2-way ANOVA) [nM]	drug concentration causing a significant increase in cell attachment ([1]; PMNs and PBMCs, Yazoo-2013 Mf) [nM]	Percentage (±SEM) of Mf with cells attached ([2]; PBMC, 1 μM drug, Metairie-2014 Mf) [%]	lowest drug concentration at which a statistically significant increase (p = <0.05) in cell attachment was observed compared to the no-drug control ([2]; PBMC, 40 h, Metairie-2014 Mf) [nM]	Percentage (±SEM) of Mf with cells attached ([2]; PMN, 1 μM drug, Metairie-2014 Mf) [%]	lowest drug concentration at which a statistically significant increase (p = <0.05) in cell attachment was observed compared to the no-drug control ([2]; PMN, 24 h, Metairie-2014 Mf) [nM]
CC[C@H](C)[C@H]1O[C@]2(CC[C@@H]1C)C[C@@H]1C[C@@H](C/C=C(\C)[C@@H](O[C@H]3C[C@H](OC)[C@@H](O[C@H]4C[C@H](OC)[C@@H](O)[C@H](C)O4)[C@H](C)O3)[C@@H](C)/C=C/C=C3\CO[C@@H]4[C@H](O)C(C)=C[C@@H](C(=O)O1)[C@]34O)O2 [IVM, ivermectin]	25 ± 5% and 18 ± 4%	100 to 300	100	13% and 10% and 13 ± 3% and 10 ± 2%	≥ 1	no significant increase									
CO/N=C1\C[C@]2(C[C@@H]3C[C@@H](C/C=C(\C)C[C@@H](C)/C=C/C=C4\CO[C@@H]5[C@H](O)C(C)=C[C@@H](C(=O)O3)[C@]45O)O2)O[C@H](/C(C)=C/C(C)C)[C@H]1C [MOX, moxidectin]							19 ± 3	10	28 ± 5	3	3 to 10	49 ± 8	1	42 ± 6	10
